# Like-named read-outs stand apart in the source and are kept apart here.
# How the values were obtained:
# [1] = system: barnyardgrass (Echinochloa crus-galli); test: Test B flooded paddy test; assay type: in vivo; conditions: Echinochloa crus-galli, Flood, 250 g ai/ha
# Summary of the method: (§1)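 Plants at 2-leaf stage flooded to 3 cm above soil, with compounds applied directly to paddy water and that depth maintained. Plants kept in greenhouse 13–15 d. Visual rating versus controls on a 0 (no effect) to 100 (complete control) scale.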
# [2] = system: ducksalad (Heteranthera limosa); test: Test B flooded paddy test; assay type: in vivo; conditions: Heteranthera limosa, Flood, 250 g ai/ha
# Summary of the method: as §1
# rice (Oryra sativa) = test: Test B flooded paddy test; assay type: in vivo; conditions: Oryza sativa, Flood, 250 g ai/ha
# Summary of the method: as §1
# [3] = system: sedge, umbrella (small-flower umbrella sedge, Cyperus difformis); test: Test B flooded paddy test; assay type: in vivo; conditions: Cyperus difformis, Flood, 250 g ai/ha
# Summary of the method: as §1
# [4] = scale of 0 to 100 where 0 is no effect and 100 is complete control, read-out: Barnyardgrass plant response rating
# [5] = scale of 0 to 100 where 0 is no effect and 100 is complete control, read-out: Ducksalad plant response rating
# [6] = scale of 0 to 100 where 0 is no effect and 100 is complete control, read-out: Rice plant response rating
# [7] = scale of 0 to 100 where 0 is no effect and 100 is complete control, read-out: Sedge, Umbrella plant response rating
# [8] = 0 to 100 scale where 0 is no effect and 100 is complete control, read-out: Barnyardgrass plant response rating
# [9] = 0 to 100 scale where 0 is no effect and 100 is complete control, read-out: Ducksalad plant response rating
# [10] = 0 to 100 scale where 0 is no effect and 100 is complete control, read-out: Rice plant response rating
# [11] = 0 to 100 scale where 0 is no effect and 100 is complete control, read-out: Sedge, Umbrella plant response rating
# [12] = 360 h, visually evaluated after 13 to 15 d, read-out: Plant response rating, Sedge, Umbrella (0 to 100 scale where 0 is no effect and 100 is complete control)
# [13] = 360 h, visually evaluated after 13 to 15 d, read-out: Plant response rating, Barnyardgrass (0 to 100 scale where 0 is no effect and 100 is complete control)
# [14] = 360 h, visually evaluated after 13 to 15 d, read-out: Plant response rating, Ducksalad (0 to 100 scale where 0 is no effect and 100 is complete control)
# [15] = 360 h, visually evaluated after 13 to 15 d, read-out: Plant response rating, Rice (0 to 100 scale where 0 is no effect and 100 is complete control)
Compound,melting point,"pest or weed control at 250 g/ha [1, 8]","pest or weed control at 250 g/ha [2, 9]",pest or weed control at 250 g/ha (rice (Oryra sativa); [10]),"pest or weed control at 250 g/ha [3, 11]",other results
O=C1NC[C@H](c2cnc(C(F)(F)F)nc2)[C@H]1C(=O)Nc1ccccc1F [Compound 741],227 to 231 °C,–,–,–,–,"pest or weed control at 250 g/ha [1, 4]: 0%; pest or weed control at 250 g/ha [2, 5]: 90%; pest or weed control at 250 g/ha (rice (Oryra sativa); [6]): 0%; pest or weed control at 250 g/ha [3, 7]: 40%"
CN1CC(c2cccc(OC/C=C/Cl)c2)C(C(=O)Nc2cccc(F)c2F)C1=O (centres unmarked) [Compound 772],146 to 150 °C,–,–,–,–,"pest or weed control at 250 g/ha [1, 4]: 0%; pest or weed control at 250 g/ha [2, 5]: 75%; pest or weed control at 250 g/ha (rice (Oryra sativa); [6]): 0%; pest or weed control at 250 g/ha [3, 7]: 0%"
C/C=C/C1CNC(=O)C1C(=O)Nc1ccccc1F (centres unmarked) [Compound 792],133 to 137 °C,–,–,–,–,"pest or weed control at 250 g/ha [1, 4]: 0%; pest or weed control at 250 g/ha [2, 5]: 0%; pest or weed control at 250 g/ha (rice (Oryra sativa); [6]): 0%; pest or weed control at 250 g/ha [3, 7]: 0%"
O=C1NCC[C@H](c2ccc(Cl)cc2)[C@H]1C(=O)Nc1cccc(F)c1F [Compound 795],86 to 89 °C,–,–,–,–,"pest or weed control at 250 g/ha [1, 4]: 0%; pest or weed control at 250 g/ha [2, 5]: 70%; pest or weed control at 250 g/ha (rice (Oryra sativa); [6]): 0%; pest or weed control at 250 g/ha [3, 7]: 0%"
CCc1ccccc1NC(=O)[C@H]1C(=O)N(C)C[C@@H]1c1ccc(C(F)(F)F)cc1 [Compound 935],116 to 119 °C,–,–,–,–,"pest or weed control at 250 g/ha [1, 4]: 0%; pest or weed control at 250 g/ha [2, 5]: 70%; pest or weed control at 250 g/ha (rice (Oryra sativa); [6]): 0%; pest or weed control at 250 g/ha [3, 7]: 0%"
CN1C[C@H](c2ccc(C(F)(F)F)cc2)[C@@H](C(=O)Nc2cccc(F)c2Cl)C1=O [Compound 938],169 to 172 °C,–,–,–,–,"pest or weed control at 250 g/ha [1, 4]: 40%; pest or weed control at 250 g/ha [2, 5]: 60%; pest or weed control at 250 g/ha (rice (Oryra sativa); [6]): 0%; pest or weed control at 250 g/ha [3, 7]: 0%"
O=C1NC[C@H](c2cccc(C(F)(F)F)n2)[C@H]1C(=O)Nc1ccccc1F [Compound 940],164 to 167 °C,–,–,–,–,"pest or weed control at 250 g/ha [1, 4]: 0%; pest or weed control at 250 g/ha [2, 5]: 0%; pest or weed control at 250 g/ha (rice (Oryra sativa); [6]): 0%; pest or weed control at 250 g/ha [3, 7]: 0%"
Cc1cc([C@H]2CN(C)C(=O)[C@@H]2C(=O)Nc2cccc(F)c2F)on1 [Compound 1196],144 to 148 °C,0%,30%,0%,0%,–
CN1CC[C@H](c2ccc(C(F)(F)F)cc2)[C@@H](C(=O)Nc2cccc(Cl)c2F)C1=O [Compound 1228],–,50%,100%,30%,0%,–
CN1C[C@H](c2ccc(C#N)cc2)[C@@H](C(=O)Nc2ccc(F)c(F)c2F)C1=O [Compound 1229],–,50%,90%,0%,0%,–
CSc1ccccc1NC(=O)[C@H]1C(=O)N(C)C[C@@H]1c1ccc(C#N)cc1 [Compound 1230],–,25%,70%,0%,0%,–
Cc1cccc([C@H]2CN(C)C(=O)[C@@H]2C(=O)Nc2ccc(F)c(F)c2F)c1 [Compound 1231],–,85%,100%,0%,0%,–
Cc1cccc([C@H]2CN(C)C(=O)[C@@H]2C(=O)Nc2cccc(F)c2C)c1 [Compound 1233],–,80%,100%,15%,0%,–
O=C1NC[C@H](c2ccc(C(F)(F)F)cc2)C1C(=O)Nc1c(F)cccc1CO (some centres unmarked) [Compound 1243],–,0%,0%,0%,0%,–
Cc1cc([C@H]2CNC(=O)[C@@H]2C(=O)Nc2ccccc2S(C)(=O)=O)ccc1Cl [Compound 1246],–,0%,100%,0%,0%,–
CN1C[C@H](c2cccc(C(F)(F)F)c2)[C@@H](C(=O)Nc2ccc(F)cc2C(F)(F)F)C1=O [Compound 1250],–,50%,100%,0%,0%,–
CN1C[C@H](c2ccc(C(F)(F)F)cc2)[C@@H](C(=O)Nc2ccccc2)C1=O [Compound 1253],–,40%,100%,0%,0%,–

Compound,melting point,"pest or weed control at 250 g/ha [1, 8]","pest or weed control at 250 g/ha [2, 9]",pest or weed control at 250 g/ha (rice (Oryra sativa); [10]),"pest or weed control at 250 g/ha [3, 11]",other results
Cc1nc([C@H]2CN(C)C(=O)[C@@H]2C(=O)Nc2ccccc2F)cs1 [Compound 1280],–,0%,0%,0%,0%,–
COc1cc([C@H]2CN(C)C(=O)[C@@H]2C(=O)Nc2ccccc2S(C)(=O)=O)ccc1F [Compound 1302],–,20%,80%,15%,0%,–
CSc1ccccc1NC(=O)[C@H]1C(=O)NC[C@@H]1c1cc(C)cc(F)c1 [Compound 1306],–,20%,100%,0%,0%,–
Cc1cc(F)cc([C@H]2CNC(=O)[C@@H]2C(=O)Nc2ccccc2S(C)(=O)=O)c1 [Compound 1307],–,30%,100%,20%,0%,–
Cc1cc(F)cc([C@H]2CNC(=O)[C@@H]2C(=O)Nc2cccc(F)c2C)c1 [Compound 1308],–,65%,100%,40%,0%,–
Cc1cc(F)cc([C@H]2CNC(=O)[C@@H]2C(=O)Nc2cccc(F)c2F)c1 [Compound 1309],–,60%,100%,20%,0%,–
CSc1ccccc1NC(=O)[C@H]1C(=O)N(C)C[C@@H]1c1ccc(F)c(C)c1 [Compound 1312],–,40%,100%,0%,–,"pest or weed control at 250 g/ha [3, 12]: 0%"
CN1C[C@H](c2ccc3c(c2)CCO3)[C@@H](C(=O)Nc2ccccc2F)C1=O [Compound 1321],–,90%,85%,0%,–,"pest or weed control at 250 g/ha [3, 12]: 0%"
O=C1NC[C@H](c2cncs2)[C@H]1C(=O)Nc1ccccc1F [Compound 1335],–,–,–,–,–,"pest or weed control at 250 g/ha [1, 13]: 0%; pest or weed control at 250 g/ha [2, 14]: 0%; pest or weed control at 250 g/ha (rice (Oryra sativa); [15]): 0%; pest or weed control at 250 g/ha [3, 12]: 0%"
O=C1NCC(c2ccccc2)C1C(=O)Nc1cc(F)ccc1F (centres unmarked) [Compound 1359],147 to 149 °C,–,–,–,–,–
O=C1NCC(c2ccccc2)C1C(=O)Nc1ccc(C(F)(F)F)cc1 (centres unmarked) [Compound 1362],221 to 223 °C,–,–,–,–,–
CN1C[C@H](c2ccc(C(F)(F)F)nc2)[C@@H](C(=O)Nc2ccc(F)c(F)c2F)C1=O [Compound 1373],–,–,–,–,–,"pest or weed control at 250 g/ha [1, 13]: 85%; pest or weed control at 250 g/ha [2, 14]: 100%; pest or weed control at 250 g/ha (rice (Oryra sativa); [15]): 0%; pest or weed control at 250 g/ha [3, 12]: 0%"
N#Cc1cc([C@H]2CNC(=O)[C@]2(O)C(=O)Nc2cccc(F)c2F)ccc1F [Compound 1374],–,–,–,–,–,"pest or weed control at 250 g/ha [1, 13]: 0%; pest or weed control at 250 g/ha [2, 14]: 0%; pest or weed control at 250 g/ha (rice (Oryra sativa); [15]): 20%; pest or weed control at 250 g/ha [3, 12]: 0%"
CN1C[C@H](c2ccc(C(F)(F)F)cc2)[C@@H](C(=O)Nc2ccccc2C#N)C1=O [Compound 1379],–,–,–,–,–,"pest or weed control at 250 g/ha [1, 13]: 55%; pest or weed control at 250 g/ha [2, 14]: 100%; pest or weed control at 250 g/ha (rice (Oryra sativa); [15]): 0%; pest or weed control at 250 g/ha [3, 12]: 0%"
CN1C[C@H](c2ccc(C(F)(F)F)cc2)[C@@H](C(=O)Nc2cccc(C#N)c2F)C1=O [Compound 1381],–,–,–,–,–,"pest or weed control at 250 g/ha [1, 13]: 65%; pest or weed control at 250 g/ha [2, 14]: 100%; pest or weed control at 250 g/ha (rice (Oryra sativa); [15]): 0%; pest or weed control at 250 g/ha [3, 12]: 0%"
CN1CC[C@H](c2cccc(C(F)(F)F)c2)[C@@H](C(=O)Nc2ccc(F)c(F)c2F)C1=O [Compound 1395],–,–,–,–,–,"pest or weed control at 250 g/ha [1, 13]: 90%; pest or weed control at 250 g/ha [2, 14]: 80%; pest or weed control at 250 g/ha (rice (Oryra sativa); [15]): 10%; pest or weed control at 250 g/ha [3, 12]: 0%"

# Reference: patent publication US12077503B2, “Substituted cyclic amides and their use as herbicides” (FMC CORPORATION, priority 2015, dated 2024)
